Measured values as given in US9539280B2, “Cartilage production promoter and prophylactic or therapeutic agent for diseases associated with cartilage damage” (NATIONAL UNIVERSITY CORPORATION TOTTORI UNIVERSITY, priority 2009, dated 2017).
Entries after “also recorded” stand apart in the source; their conditions may differ.

What was measured:
Format in all cases: in vivo, rabbit
[1] = system: damaged models (holes bored at proximal trochlear groove, distal trochlear groove and medial trochlear ridge of left knee joint); assay: Macroscopic observation of the degree of healing in cartilage damaged models; details: after 3 weeks
Experimental: As animal specimens, groups of female white rabbits (weight: about 2.0 kg) were used, the number of the rabbits in each of the groups being 3. The rabbits were habituated to the environment for one week from the time of delivery. Thereafter, 0.1 mg/kg of medetomidine was subcutaneously injected into each of the rabbits, and 25 mg/kg of Ketalar was intramuscularly injected thereto. About each of the rabbit specimens subjected to the injection anesthesia, the left knee joint was shaved, and then disinfected. Thereafter, approaching from the outside of the knee joint, the articular capsule was opened and the knee joint was exposed completely by shifting the patella to the inside. With reference to the experiment of Tamai et al. (Carbohydrate Polymers, 2002, vol. 48, pp. 369-378), three holes of 2 mm in diameter and 4 mm in depth were bored with a hand-drill at the proximal trochlear groove, distal trochlear groove, and the medial trochlear ridge. Thereafter, the sites were sufficiently rinsed, and then the articular capsule was sutured with 3-0PDS (polydioxanone). The subcutaneous tissue and the skin were simultaneously sutured with stainless steel wires. […] The degree of healing of each of the damages was scored on the basis of Table 1, and evaluated. […] About each of the damaged model groups, the degree of healing was evaluated on the basis of the criterion in Example 2. […]

glycosaminoglycan = assay: Histological observation, staining with alcian blue and image analysis
Experimental: (§1) As animal specimens, groups of female white rabbits (weight: about 2.0 kg) were used, the number of the rabbits in each of the groups being 3. The rabbits were habituated to the environment for one week from the time of delivery. Thereafter, 0.1 mg/kg of medetomidine was subcutaneously injected into each of the rabbits, and 25 mg/kg of Ketalar was intramuscularly injected thereto. About each of the rabbit specimens subjected to the injection anesthesia, the left knee joint was shaved, and then disinfected. Thereafter, approaching from the outside of the knee joint, the articular capsule was opened and the knee joint was exposed completely by shifting the patella to the inside. With reference to the experiment of Tamai et al. (Carbohydrate Polymers, 2002, vol. 48, pp. 369-378), three holes of 2 mm in diameter and 4 mm in depth were bored with a hand-drill at the proximal trochlear groove, distal trochlear groove, and the medial trochlear ridge. Thereafter, the sites were sufficiently rinsed, and then the articular capsule was sutured with 3-0PDS (polydioxanone). […]
(§2) The left femur of each of the damaged models in Example 1 was recovered, and then fixed with a 10% neutral buffered formalin aqueous solution (formaldehyde solution). […] The number of pixels in which a target color tone occupied was measured. […]

[2] = Observation of side effects during fucoidan administration; details: 1 g fucoidan in 50 mL water every day by natural intake, 3 weeks, female white rabbits
Experimental: From the day of the operation, initially every day, water (50 mL) in which 1 g of a fucoidan was dissolved were dosed to the rabbits in the fucoidan-administered group by natural intake. Thereafter, water was given to the rabbits to drink freely. This was continued for 3 weeks. Only water was given to the rabbits in the control group.

proteoglycan = assay: Histological observation, staining with safranin-O and image analysis
Experimental: as §1, §2

[3] = Example 3, FIG. 6, vs control group, t-test

## fucoidan
[1]; Example 2, FIG. 1, vs control group
  degree of healing (macroscopic observation): many of the damages were satisfactorily cured; also recorded: good therapeutic results
[1]; Example 2, control filled with collagen fibers, fibroblasts
  tissue in the damaged sites: substituted with chondroblasts and cartilage tissues
glycosaminoglycan; [3]
  image analysis of alcian blue-stained images (glycosaminoglycan): significantly higher value
glycosaminoglycan; Example 3, FIGS. 2 and 3, proximal and distal trochlear groove, microscope
  alcian blue staining of repaired regions (glycosaminoglycan content): a large amount of glycosaminoglycan was contained
[2]
  signs of side effects: no signs of side effects
proteoglycan; [3]
  image analysis of safranin-O-stained images (proteoglycan): significantly higher value
proteoglycan; Example 3, FIGS. 4 and 5, proximal and distal trochlear groove, microscope
  safranin-O staining of repaired regions (proteoglycan content): a large amount of proteoglycan was contained
